Columns and labels:
[1] = system: ATF4 target genes ATF3, CHOP and DDIT4; assay: Quantitative RT-PCR of ATF4 target genes; format: cell-based, human
Experimental: (§1) The U937 GCN2−/− cell line is derived from a single clone of U937 parental cells stably infected with a lentiviral CRISPR vector targeting GCN2. […] Cells were incubated with DMSO or 200 nM Compound D and lysed at the indicated time points. Arrows pointing to bands in the blot on the right designate the cleaved forms of caspase-3. […] The U937 GCN2−/− cell line is derived from a single clone of U937 parental cells stably infected with a lentiviral CRISPR vector targeting GCN2. […] Cells were treated with DMSO or Compound D for 24 hours. On day 3 after Compound D treatment, cell proliferation was assessed by CTG. Result shown in all figure panels is representative of at least three biological replicates. Data in FIGS. 13C, 13D and 13E are shown as mean±SD, n=3 technical replicates.
Specifically, following incubation with DMSO or Compound D, cells were collected via centrifugation at 2000 rpm for 2 minutes. Cell pellets were then washed once in ice-cold PBS and snap-frozen in liquid nitrogen. […] The cDNA transcripts of GADPH, DDIT3 (CHOP), DDIT4 (REDD), and ATF3 were quantified by the ViiA™ 7 Real-Time PCR System using TaqMan Gene Expression Assay probes (Invitrogen). The cDNA level of various CRBN transcripts was quantified using RT^2 SYBR Green qPCR Mastermixes (Qiagen). […]

[2] = system: GCN2-mediated ISR; assay: Immunoblot analysis of integrated stress response and apoptosis markers; format: cell-based, human
Experimental: as §1
To determine if the activation of the ISR by Compound D is solely mediated by GCN2, the effect of GCN2 ablation on Compound D response was evaluated.

O=C1CCC(N2Cc3cc(CNC(=O)C(F)(F)c4ccc(Cl)cc4)ccc3C2=O)C(=O)N1 (centres unmarked) [Compound D, 2-(4-chlorophenyl)-N-((2-(2,6-dioxopiperidin-3-yl)-1-oxoisoindolin-5-yl)methyl)-2,2-difluoroacetamide]
mRNA level of ATF4 target genes ([1]; U937 24 hours, KG-1 200 nM for 2, 4 or 6 hours): marked induction of ATF4 target genes ATF3, CHOP and DDIT4 at the mRNA level | induction of ATF3 and CHOP after GCN2 loss ([1]; U937 GCN2-/-, 24 hours): largely, but not completely, blocked the induction of other ATF4 target genes ATF3 and CHOP | activation of the ISR (eIF2a phosphorylation, ATF4 and targets) ([2]; U937 24 hours, KG-1 200 nM): triggered the rapid phosphorylation of eIF2a, accumulation of ATF4 and its transcriptional targets DDIT4, CHOP and ATF3 | apoptosis (cleaved caspase-3) ([2]; U937, KG-1 200 nM): subsequent induction of apoptosis | ISR activation and caspase-3 cleavage after GCN2 knockout ([2]; U937 GCN2-/-, 24 hours): inhibited the phosphorylation of eIF2a, induction of ATF4 and its target gene DDIT4, and the cleavage of caspase-3

Source: patent US20220389515A1, “USE OF BIOMARKERS TO PREDICT CLINICAL SENSITIVITY TO 2-(4-CHLOROPHENYL)-N-((2-(2,6-DIOXOPIPERIDIN-3-YL)-1-OXOISOINDOLIN-5-YL)METHYL)-2,2-DIFLUOROACETAMIDE” (priority 2019, published 2022)
